Results reported in ChEMBL document CHEMBL1201862, “PubChem BioAssay data set” (2004).
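Dose response: 5 concentrations. Exposure: 48 h. Format: 96-well plates. Endpoint: linear interpolation; highest concentration if not reached. Abbreviation: GI50, concentration required for 50% inhibition of growth.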 Calls of active or inactive are those of the source. No stated cut-off is given here; in the data, active = GI50 up to about 1.1 µM and inactive = higher.

How the values were obtained:
Experiment in all cases: NCI tumour cell line growth inhibition, 48 h
786-0 = system: 786-0
ACHN = system: ACHN
HL-60 = system: HL-60
HT-29 = system: HT-29
MDA-MB-435 = system: MDA-MB-435
MOLT-4 = system: MOLT-4
Malme-3M = system: Malme-3M
NCI-H460 = system: NCI-H460
NCI/ADR-RES = system: NCI/ADR-RES
RPMI-8226 = system: RPMI-8226
SF-268 = system: SF-268
SF-295 = system: SF-295
SK-MEL-5 = system: SK-MEL-5
SNB-19 = system: SNB-19
SNB-75 = system: SNB-75
SW-620 = system: SW-620
T47D = system: T47D
CCRF-CEM = system: CCRF-CEM
HOP-92 = system: HOP-92
MDA-N = system: MDA-N

SMILES | GI50 (786-0) | GI50 (ACHN) | GI50 (HL-60) | GI50 (HT-29) | GI50 (MDA-MB-435) | GI50 (MOLT-4) | GI50 (Malme-3M) | GI50 (NCI-H460) | GI50 (NCI/ADR-RES) | GI50 (RPMI-8226) | GI50 (SF-268) | GI50 (SF-295) | GI50 (SK-MEL-5) | GI50 (SNB-19) | GI50 (SNB-75) | GI50 (SW-620) | GI50 (T47D) | GI50 (CCRF-CEM) | GI50 (HOP-92) | GI50 (MDA-N)
C/C(=C\CSCC(N)C(=O)O)CC/C=C(\C)CNc1ccccc1 (configuration not stated) | > 100 µM (inactive) | > 100 µM (inactive) | > 100 µM (inactive) | > 100 µM (inactive) | > 100 µM (inactive) | > 100 µM (inactive) | > 100 µM (inactive) | > 100 µM (inactive) | > 100 µM (inactive) | 0.421 µM (active) | > 100 µM (inactive) | > 100 µM (inactive) | 75.2 µM (inactive) | > 100 µM (inactive) | > 100 µM (inactive) | > 100 µM (inactive) | > 100 µM (inactive) | – | – | –
Cc1ccc(SC2=C(N(C)C)C(=O)c3ccccc3C2=O)cc1 | 3.82 µM (inactive) | 6.87 µM (inactive) | 0.38 µM (active) | 6.27 µM (inactive) | 0.444 µM (active) | 0.82 µM (active) | 4.83 µM (inactive) | 6.3 µM (inactive) | 0.847 µM (active) | 2.54 µM (inactive) | 4.76 µM (inactive) | 11.5 µM (inactive) | 2.31 µM (inactive) | 12.3 µM (inactive) | 12.1 µM (inactive) | 1.46 µM (inactive) | 3.35 µM (inactive) | 1.55 µM (inactive) | 4.71 µM (inactive) | –
O=C1C2=C(c3ccccc31)C(c1ccc(F)cc1)N1C(=O)CCSC1=N2 (configuration not stated) | > 100 µM (inactive) | > 100 µM (inactive) | 65.6 µM (inactive) | > 100 µM (inactive) | – | 64.6 µM (inactive) | > 100 µM (inactive) | > 100 µM (inactive) | – | 49.2 µM (inactive) | > 100 µM (inactive) | > 100 µM (inactive) | 60.5 µM (inactive) | > 100 µM (inactive) | 24.4 µM (inactive) | > 100 µM (inactive) | – | 89.5 µM (inactive) | 24.7 µM (inactive) | –
O=C(/C=C/c1c(O)ccc2ccccc12)c1ccc([N+](=O)[O-])cc1 | 24.5 µM (inactive) | 22.1 µM (inactive) | 9.77 µM (inactive) | 54.1 µM (inactive) | – | 43.6 µM (inactive) | 22.9 µM (inactive) | 46.9 µM (inactive) | – | 25.9 µM (inactive) | 41.5 µM (inactive) | > 66.2 µM (inactive) | 19.4 µM (inactive) | > 88.9 µM (inactive) | > 83 µM (inactive) | 25.2 µM (inactive) | – | 17.9 µM (inactive) | 16.1 µM (inactive) | –
COC(=O)C1=C(C)NC(C)=C(C(=O)OC)C1c1nc2sccn2c1[N+](=O)[O-] | > 100 µM (inactive) | > 100 µM (inactive) | > 100 µM (inactive) | – | > 100 µM (inactive) | > 100 µM (inactive) | – | > 100 µM (inactive) | > 100 µM (inactive) | > 100 µM (inactive) | > 100 µM (inactive) | > 100 µM (inactive) | > 100 µM (inactive) | > 100 µM (inactive) | > 100 µM (inactive) | > 100 µM (inactive) | > 100 µM (inactive) | > 100 µM (inactive) | > 100 µM (inactive) | –
CC(=O)O[C@H]1CC2C(C3CCC(C(C)CCC(=O)O)[C@]31C)[C@H](OC(C)=O)C[C@@H]1CC3(CC[C@]21C)OOC1(CC[C@]2(C)C4C[C@H](OC(C)=O)[C@]5(C)C(C(C)CCC(=O)O)CCC5C4[C@H](OC(C)=O)C[C@@H]2C1)OO3 (some centres not stated) | 2.76 µM (inactive) | 1.71 µM (inactive) | 1.51 µM (inactive) | 2.57 µM (inactive) | 1.94 µM (inactive) | 2.03 µM (inactive) | 1.52 µM (inactive) | 1.48 µM (inactive) | 2.63 µM (inactive) | 2.76 µM (inactive) | 1.38 µM (inactive) | 1.77 µM (inactive) | 1.55 µM (inactive) | 2.86 µM (inactive) | 1.3 µM (inactive) | 3.46 µM (inactive) | – | 2.59 µM (inactive) | – | 2.31 µM (inactive)
Nc1nc(SCCNC(=O)CCc2ccc(O)cc2)nc2c1ncn2C1OC(CO)C(O)C1O (configuration not stated) | > 203 µM (inactive) | > 203 µM (inactive) | > 203 µM (inactive) | > 203 µM (inactive) | – | > 203 µM (inactive) | > 203 µM (inactive) | > 203 µM (inactive) | – | > 203 µM (inactive) | > 203 µM (inactive) | > 203 µM (inactive) | > 203 µM (inactive) | > 203 µM (inactive) | > 203 µM (inactive) | > 203 µM (inactive) | – | > 203 µM (inactive) | > 203 µM (inactive) | –
COc1ccc(-n2nnnc2C2(Nc3ccccc3)CCN(Cc3ccccc3)CC2)cc1 | 13.6 µM (inactive) | 31.8 µM (inactive) | 2.56 µM (inactive) | 6.82 µM (inactive) | 3.29 µM (inactive) | 5.04 µM (inactive) | 13.4 µM (inactive) | 11.2 µM (inactive) | 7.35 µM (inactive) | 9.77 µM (inactive) | > 10 µM (inactive) | 13.6 µM (inactive) | 10.2 µM (inactive) | 12.3 µM (inactive) | 12.2 µM (inactive) | 7.38 µM (inactive) | 14.7 µM (inactive) | 18.7 µM (inactive) | 3.45 µM (inactive) | –
COc1ccc(/C=C/[N+](=O)[O-])cc1 | 3.75 µM (inactive) | 7.48 µM (inactive) | 2.77 µM (inactive) | 3.24 µM (inactive) | 1.86 µM (inactive) | 2.8 µM (inactive) | 19.1 µM (inactive) | 6.9 µM (inactive) | 30.7 µM (inactive) | – | 2.92 µM (inactive) | 2.62 µM (inactive) | 11.6 µM (inactive) | 3.52 µM (inactive) | 14.9 µM (inactive) | 2.83 µM (inactive) | – | – | – | –
Cc1ccc(S(=O)(=O)N2CCC2c2ccccc2)cc1 (configuration not stated) | > 100 µM (inactive) | > 100 µM (inactive) | 7.13 µM (inactive) | > 100 µM (inactive) | – | 37.8 µM (inactive) | > 100 µM (inactive) | > 100 µM (inactive) | – | 66.2 µM (inactive) | 82.2 µM (inactive) | 74.6 µM (inactive) | 42 µM (inactive) | 68.7 µM (inactive) | 72.6 µM (inactive) | > 100 µM (inactive) | – | 80.4 µM (inactive) | 10.1 µM (inactive) | –
C1=NN2C(c3ccccc3)=NOC2C2C(c3ccccc3)=NOC12 (configuration not stated) | > 100 µM (inactive) | 98.6 µM (inactive) | – | – | – | – | > 100 µM (inactive) | > 100 µM (inactive) | 97.9 µM (inactive) | – | > 100 µM (inactive) | > 100 µM (inactive) | 58.7 µM (inactive) | > 100 µM (inactive) | > 100 µM (inactive) | – | – | – | – | > 100 µM (inactive)
CN(Cc1cnc2nc(N)nc(N)c2n1)c1ccc(C(=O)NC23CC4CC(CC(C4)C2)C3)cc1 | 7.24 µM (inactive) | 3.13 µM (inactive) | 12.2 µM (inactive) | – | 10.5 µM (inactive) | 6.68 µM (inactive) | 6.85 µM (inactive) | 5.96 µM (inactive) | 42.8 µM (inactive) | 22 µM (inactive) | 5.55 µM (inactive) | 4.69 µM (inactive) | 4.19 µM (inactive) | 6.52 µM (inactive) | 21.5 µM (inactive) | 7.33 µM (inactive) | 15.9 µM (inactive) | 3.95 µM (inactive) | – | –
